Experimental data from the supplement of paper PMC10290057.
Counter-ions that a name gives are not always drawn.

How the values were obtained:
HCT116 [1] = experiment: AC50 cell viability (CellTiter-Glo); higher = less potent; conditions: 48 h
HCT116 [2] = experiment: efficacy (fitted maximal change in viability relative to DMSO control); higher = less cytotoxic (negative = loss of viability); conditions: 48 h
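Wherever AC50 cell viability (CellTiter-Glo) is given: HCT116 colorectal carcinoma cells screened at five concentrations per compound, luminescent viability scaled between DMSO wells and empty wells on each plate, curves fitted per compound.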
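Wherever efficacy (fitted maximal change in viability relative to DMSO control) is given: Luminescence-based viability readout, five doses per compound, normalized against on-plate DMSO and empty-well controls, followed by dose-response curve fitting for every drug.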

C[C@H](NC(=O)C1=C2N=CC=C[N]2N=C1N)\C3=C\C4=CC=CC(=C4C(=O)N3C5=CC=CC=C5)C#CC6=C[N](C)N=C6 [IPI-549]
AC50 cell viability (HCT116 [1]): 8.11 µM
efficacy (HCT116 [2]): -43.1%

O=C(Nc1nc2ccccc2n1CCN1CCOCC1)c1cccc([N+](=O)[O-])c1 [IRAK-1-4 Inhibitor I]
AC50 cell viability (HCT116 [1]): 14.8 µM
efficacy (HCT116 [2]): -64.8%

CC(C)(C)OC(=O)Nc1ccc(-c2cc(C(=O)NCCCCCCC(=O)NO)no2)cc1 [ISOX]
AC50 cell viability (HCT116 [1]): 1.86 µM
efficacy (HCT116 [2]): -91.5%

CCOC(=O)\C1=C(/C)N\C2=C(C1C3=CC=C(C=C3)C4=CC=CC=C4)\C(=O)CC(C)(C)C2 (stereo unspecified) [ITD-1]
AC50 cell viability (HCT116 [1]): 18.6 µM
efficacy (HCT116 [2]): -67.8%

COc1cc(C)c(Sc2cnc(NC(=O)c3ccc(CNC(C)C(C)C)cc3)s2)cc1C(=O)N1CCN(C(C)=O)CC1 (stereo unspecified) [ITK Inhibitor]
AC50 cell viability (HCT116 [1]): 14.8 µM
efficacy (HCT116 [2]): -132%

COc1ccc([S+](=O)([O-])N(C(C)=O)c2ccccc2/C=C/c2cc[n+]([O-])cc2)cc1 [IVX-214]
AC50 cell viability (HCT116 [1]): 4.17 µM
efficacy (HCT116 [2]): -59.1%

CC(C)(NC(=O)O[C@@H]1CN2CCC1CC2)c1csc(-c2ccc(F)cc2)n1 [Ibiglustat]
AC50 cell viability (HCT116 [1]): 18.6 µM
efficacy (HCT116 [2]): -43.3%

CC(=O)[C@]1(O)Cc2c(O)c3c(c(O)c2[C@@H](O[C@H]2C[C@H](N)[C@H](O)[C@H](C)O2)C1)C(=O)c1ccccc1C3=O [Idarubicin hydrochloride]
AC50 cell viability (HCT116 [1]): 0.661 µM
efficacy (HCT116 [2]): -83%

COc1cc(C(=O)O)ccc1NC(=O)[C@@H]1N[C@@H](CC(C)(C)C)[C@](C#N)(c2ccc(Cl)cc2F)[C@H]1c1cccc(Cl)c1F [Idasanutlin]
AC50 cell viability (HCT116 [1]): 1.66 µM
efficacy (HCT116 [2]): -67.9%

COC\1=C(/OC)C(=O)\C(=C(C)/C1=O)CCCCCCCCCCO [Idebenone]
AC50 cell viability (HCT116 [1]): 18.6 µM
efficacy (HCT116 [2]): -54.9%

OC[C@H]1O[C@H](C[C@@H]1O)N2\C=C(\I)C(=O)NC2=O [Idoxuridine]
AC50 cell viability (HCT116 [1]): 16.6 µM
efficacy (HCT116 [2]): -38.3%

OC1=CC=C(C=C1)C/2=C/C3=C(OC2)C=C(O)C=C3 [Idronoxil]
AC50 cell viability (HCT116 [1]): 3.72 µM
efficacy (HCT116 [2]): -73.9%

Cc1ccc(NC(=O)c2ccc(CN3CCN(C)CC3)cc2)cc1Nc1nccc(-c2cccnc2)n1 [Imatinib]
AC50 cell viability (HCT116 [1]): 16.6 µM
efficacy (HCT116 [2]): -85%

NC(=O)C/1=C(O)/[C@]2(O)[C@@H](C[C@@H]\3CC4=C(C(=CC=C4)O)\C(=C3C2=O)O)CC1=O [Incyclinide]
AC50 cell viability (HCT116 [1]): 16.6 µM
efficacy (HCT116 [2]): -69.4%

O=C(Nc1ccncc1)C(=O)c1cn(Cc2ccc(Cl)cc2)c2ccccc12 [Indibulin]
AC50 cell viability (HCT116 [1]): 0.295 µM
efficacy (HCT116 [2]): -70.9%

COC1=C(OC)C=C2C(=C1)C(=O)N(CCC[N]3C=CN=C3)\C4=C2\C(=O)C5=CC6=C(OCO6)C=C45 [Indimitecan hydrochloride (LMP-776)]
AC50 cell viability (HCT116 [1]): 5.9 µM
efficacy (HCT116 [2]): -63.4%

N[S+](=O)([O-])c1ccc([S+](=O)([O-])Nc2cccc3c(Cl)c[nH]c23)cc1 [Indisulam (E7070)]
AC50 cell viability (HCT116 [1]): 1.86 µM
efficacy (HCT116 [2]): -57.8%

COC1=C(OC)C=C2C(=C1)C(=O)N(CCCN3CCOCC3)\C4=C2\C(=O)C5=C4C=C6OCOC6=C5 [Indotecan hydrochloride (LMP-400)]
AC50 cell viability (HCT116 [1]): 2.09 µM
efficacy (HCT116 [2]): -88.1%

CC(C)NC[C@@H](C(=O)N1CCN(c2ncnc3c2[C@H](C)C[C@H]3O)CC1)c1ccc(Cl)cc1 [Ipatasertib]
AC50 cell viability (HCT116 [1]): 13.2 µM
efficacy (HCT116 [2]): -96.8%

CCC1=C2C=C(OC(=O)N3CCC(CC3)N4CCCCC4)C=CC2=NC\5=C1CN6C(=O)\C7=C(/C=C56)[C@@](O)(CC)C(=O)OC7 [Irinotecan]
AC50 cell viability (HCT116 [1]): 1.18 µM
efficacy (HCT116 [2]): -80%

Clc1ccc(C(Cn2ccnc2)OCc2c(Cl)cccc2Cl)c(Cl)c1 (stereo unspecified) [Isoconazole nitrate]
AC50 cell viability (HCT116 [1]): 23.5 µM
efficacy (HCT116 [2]): -77.2%

CC(C)[C@@H](N(CCCN)C(=O)C1=CC=C(C)C=C1)C/2=N/C3=CC(=CC=C3C(=O)N2CC4=CC=CC=C4)Cl [Ispinesib]
AC50 cell viability (HCT116 [1]): 0.0295 µM
efficacy (HCT116 [2]): -94.4%

CC(C)(C)C1=CC(=C(NC(=O)C/2=C/NC3=C(C=CC=C3)C2=O)C=C1O)C(C)(C)C [Ivacaftor]
AC50 cell viability (HCT116 [1]): 18.6 µM
efficacy (HCT116 [2]): -108%

C/C(=C\c1csc(C)n1)[C@@H]1C[C@@H]2O[C@]2(C)CCC[C@H](C)[C@H](O)[C@@H](C)C(=O)C(C)(C)[C@@H](O)CC(=O)N1 [Ixabepilone]
AC50 cell viability (HCT116 [1]): 0.0833 µM
efficacy (HCT116 [2]): -58.5%

CC(C)C[C@H](NC(=O)CNC(=O)c1cc(Cl)ccc1Cl)B1OC(=O)CC(CC(=O)O)(C(=O)O)O1 (stereo partly specified) [Ixazomib citrate]
AC50 cell viability (HCT116 [1]): 0.148 µM
efficacy (HCT116 [2]): -93.4%

CC(C)C[C@H](NC(=O)CNC(=O)c1cc(Cl)ccc1Cl)B(O)O [Ixazomib]
AC50 cell viability (HCT116 [1]): 0.0833 µM
efficacy (HCT116 [2]): -89.3%

N#CC(c1ccnc(NCCc2cccnc2)n1)c1nc2ccccc2s1 (stereo unspecified) [JNK Inhibitor V]
AC50 cell viability (HCT116 [1]): 8.33 µM
efficacy (HCT116 [2]): -92.2%

CC1=C(C)C2=C(S1)[N]3C(=NN=C3[C@H](CC(=O)OC(C)(C)C)/N=C2/C4=CC=C(Cl)C=C4)C [JQ1]
AC50 cell viability (HCT116 [1]): 0.525 µM
efficacy (HCT116 [2]): -81.9%
